According to patent EP4711369A1, “1H-[1,2,3]TRIAZOLO[4,5-H]QUINAZOLINE COMPOUNDS AS PROTEIN KINASE INHIBITORS” (Chengdu Cynogen Bio-Pharmaceutical Technology Co., Ltd., priority 2023, dated 2024):
Where two headings read alike, the source gives them in different places.

What was measured:
CDK6/cyclin D3 = CDK6/cyclin D3 (Homo sapiens, UniProt Q00534); assay: Assay of kinase activity (ADP-Glo); type: biochemical; conditions: kinase inhibitory activity
Description: (§1) CDK/cyclin catalyzes the phosphorylation of a substrate, which concomitantly consumes ATP and produces ADP. The inhibition rate (%) in the presence of a small molecule inhibitor was assessed by measuring the amount of ADP generated in the reaction. The assay compounds were thoroughly mixed by vortexing and then diluted in DMSO to 100× the assay concentration. 40 nL of a compound was transferred to a 384-well assay plate using a nanoliter pipetting system (ECHO® 655 SYSTEM). A 2× kinase solution was prepared using a 1× kinase reaction buffer (50 mM Hepes, 10 mM MgCl2, 0.01% Brij35, 2 mM DTT). 2 µL of the kinase solution was transferred to the 384-well assay plate, and the plate was centrifuged at 1000 rpm for 60 seconds in a microplate centrifuge. The plate was incubated at 25 °C in a biochemical incubator for 10 minutes. A 2x mixture of substrate and ATP was prepared in the kinase reaction buffer. Then, 2 µL of the mixture of substrate and ATP was added to the 384-well assay plate. The plate was centrifuged at 1000 rpm for 60 seconds in a microplate centrifuge, and incubated at 25 °C in a biochemical incubator for 60 minutes. 4 µL of ADP-Glo Reagent (Cat. No. V9103, manufacturer: Promega) incubated at 25 °C in a biochemical incubator was added to each well of the 384-well assay plate. The plate was centrifuged at 1000 rpm for 60 seconds in a microplate centrifuge, and incubated at 25 °C in a biochemical incubator for 40 minutes. 8 µL of Detection Reagent incubated at 25 °C in a biochemical incubator was added to each well of the 384-well assay plate. The plate was centrifuged at 1000 rpm for 60 seconds in a microplate centrifuge, and incubated at 25 °C in a biochemical incubator for 40 minutes. Finally, luminescence signals were read using a multifunctional microplate reader (model: PHERAstar FSX, manufacturer: BMG). IC50 values were calculated by nonlinear fitting of the concentration-response curves using GraphPad Prism software.

[1] = tested on: Human ovarian cancer OVCAR3 cells; assay: Assay of cell proliferation (CellTiter-Glo); type: cell-based; conditions: 6 days, read-out: OVCAR3 IC50 of cell proliferation inhibitory activity
Description: (§2) Human ovarian cancer OVCAR3 cells were inoculated at 2000 cells/well in a 96-well plate and cultured in RPMI 1640 medium containing 20% FBS at 37 °C and 5% CO2 overnight in an incubator. The next day, the compounds were subjected to a three-fold gradient dilution in DMSO from a peak concentration of 2 mM to give nine concentrations. Then, the compounds were diluted 3:200 in growth medium, and finally diluted 1:3 in the cell culture supernatant to give a culture supernatant containing 0.5% DMSO, with the compounds treatment concentrations ranging from 10 µM to 0.1 nM. The cells and the compounds were incubated at 37 °C and 5% CO2 for 6 days. Then, cell proliferation assay was performed using the CellTiter-Glo (manufacturer: Promega, Cat. No. G9242), and luminescence signals were read using a multifunctional microplate reader (model: Synergy H1, manufacturer: BiotTek). IC50 values were calculated by fitting of the concentration-response curves with a four-parameter analysis method using GraphPad Prism software.

CDK2/cyclin E = CDK2/cyclin E (Homo sapiens, UniProt P24941); assay: Assay of kinase activity (ADP-Glo); type: biochemical; conditions: kinase inhibitory activity, read-out: CDK2/E1 IC50
Description: as §1, with “40 nL of a compound was transferred to a 384-well assay plate using a nanoliter pipetting system (ECHO® 655 SYSTEM).” left out

CDK4/cyclin D1 = CDK4/cyclin D1 (Homo sapiens, UniProt P11802); assay: Assay of kinase activity (ADP-Glo); type: biochemical; conditions: kinase inhibitory activity
CDK4/cyclin D1, sequence (P11802 whole entry, species assumed): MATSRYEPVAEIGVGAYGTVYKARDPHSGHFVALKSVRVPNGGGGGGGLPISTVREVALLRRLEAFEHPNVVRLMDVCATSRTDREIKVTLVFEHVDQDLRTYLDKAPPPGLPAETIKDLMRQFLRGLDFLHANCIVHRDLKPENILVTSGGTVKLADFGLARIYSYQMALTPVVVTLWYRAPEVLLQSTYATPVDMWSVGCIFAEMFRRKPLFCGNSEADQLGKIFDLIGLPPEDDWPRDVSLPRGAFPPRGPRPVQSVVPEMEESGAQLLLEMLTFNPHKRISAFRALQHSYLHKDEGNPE
CDK4/cyclin D1, sequence (P24385 whole entry partner, species assumed): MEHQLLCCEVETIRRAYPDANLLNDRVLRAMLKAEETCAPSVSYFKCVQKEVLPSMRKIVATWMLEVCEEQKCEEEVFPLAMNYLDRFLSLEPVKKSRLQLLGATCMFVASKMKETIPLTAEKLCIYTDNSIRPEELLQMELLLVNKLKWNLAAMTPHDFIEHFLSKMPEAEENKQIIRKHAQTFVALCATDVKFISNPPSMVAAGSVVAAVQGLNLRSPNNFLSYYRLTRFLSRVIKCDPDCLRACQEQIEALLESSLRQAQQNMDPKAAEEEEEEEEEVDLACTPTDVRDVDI
Description: as §1, with “40 nL of a compound was transferred to a 384-well assay plate using a nanoliter pipetting system (ECHO® 655 SYSTEM).” left out

[2] = tested on: human gastric cancer MKN1 cells; assay: Assay of cell proliferation (CellTiter-Glo); type: cell-based; conditions: read-out: MKN1 IC50 of cell proliferation inhibitory activity
Description: as §2
(§3) The cell proliferation assays of human colon cancer HCT-116 cells, human breast cancer MCF-7 cells, human breast cancer HCC1806 cells, human acute myeloid leukemia MV-4-11 cells, and human gastric cancer MKN1 cells were performed according to the same method, with different inoculation densities set according to different cell growth characteristics.

[3] = tested on: human acute myeloid leukemia MV-4-11 cells; assay: Assay of cell proliferation (CellTiter-Glo); type: cell-based; conditions: MV4-11, 144 h, 6 days, read-out: MV-4-11 IC50 of cell proliferation inhibitory activity
Description: as §2, §3

[4] = tested on: human breast cancer HCC1806 cells; assay: Assay of cell proliferation (CellTiter-Glo); type: cell-based; conditions: 6 days, read-out: HCC1806 IC50 of cell proliferation inhibitory activity
Description: as §2, §3

CDK9/cyclin T1 = CDK9/cyclin T1 (Homo sapiens, UniProt P50750); assay: Assay of kinase activity (ADP-Glo); type: biochemical; conditions: kinase inhibitory activity
CDK9/cyclin T1, sequence (P50750 whole entry, species assumed): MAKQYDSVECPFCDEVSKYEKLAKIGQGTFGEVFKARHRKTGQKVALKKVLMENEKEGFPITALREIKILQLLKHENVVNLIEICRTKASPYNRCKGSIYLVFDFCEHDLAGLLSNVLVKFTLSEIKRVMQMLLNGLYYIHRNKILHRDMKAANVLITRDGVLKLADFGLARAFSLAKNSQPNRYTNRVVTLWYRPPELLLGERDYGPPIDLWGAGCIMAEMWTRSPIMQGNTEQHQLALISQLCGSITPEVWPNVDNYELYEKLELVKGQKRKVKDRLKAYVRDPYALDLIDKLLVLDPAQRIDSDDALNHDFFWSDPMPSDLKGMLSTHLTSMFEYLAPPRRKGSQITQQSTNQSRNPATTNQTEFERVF
CDK9/cyclin T1, sequence (O60563 whole entry partner, species assumed): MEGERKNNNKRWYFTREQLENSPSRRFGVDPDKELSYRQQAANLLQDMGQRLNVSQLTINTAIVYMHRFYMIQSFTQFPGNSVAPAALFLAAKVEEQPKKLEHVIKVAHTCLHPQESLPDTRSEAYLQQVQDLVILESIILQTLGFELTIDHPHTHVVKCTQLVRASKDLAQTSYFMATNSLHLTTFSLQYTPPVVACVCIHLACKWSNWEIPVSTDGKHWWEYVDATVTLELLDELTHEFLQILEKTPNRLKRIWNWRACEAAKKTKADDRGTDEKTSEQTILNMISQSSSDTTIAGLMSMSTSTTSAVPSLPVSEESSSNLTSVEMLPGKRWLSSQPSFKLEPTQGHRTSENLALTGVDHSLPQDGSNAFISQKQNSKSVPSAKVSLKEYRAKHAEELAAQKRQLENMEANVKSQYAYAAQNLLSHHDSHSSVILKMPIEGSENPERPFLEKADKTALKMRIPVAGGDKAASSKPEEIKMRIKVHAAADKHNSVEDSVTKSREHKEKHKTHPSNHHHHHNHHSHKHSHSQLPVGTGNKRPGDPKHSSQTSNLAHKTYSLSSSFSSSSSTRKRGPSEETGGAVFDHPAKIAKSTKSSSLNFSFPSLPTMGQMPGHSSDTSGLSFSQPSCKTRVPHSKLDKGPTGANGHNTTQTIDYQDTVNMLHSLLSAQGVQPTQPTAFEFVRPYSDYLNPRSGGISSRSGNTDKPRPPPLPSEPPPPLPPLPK
Description: as §1

[5] = Homo sapiens, MKN-1, 144 h, MNK1, 6 days

CDK6/cyclin D3, sequence (Q00534 whole entry, species assumed): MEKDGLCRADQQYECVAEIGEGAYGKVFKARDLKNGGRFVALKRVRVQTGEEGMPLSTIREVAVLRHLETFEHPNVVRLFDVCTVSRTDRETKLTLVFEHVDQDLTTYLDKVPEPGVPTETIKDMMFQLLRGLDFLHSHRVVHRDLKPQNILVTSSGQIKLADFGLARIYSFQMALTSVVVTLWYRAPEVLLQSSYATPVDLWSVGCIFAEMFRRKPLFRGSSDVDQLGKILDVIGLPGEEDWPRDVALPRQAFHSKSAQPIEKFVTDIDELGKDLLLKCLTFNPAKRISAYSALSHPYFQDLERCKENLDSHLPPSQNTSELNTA
CDK6/cyclin D3, sequence (P30281 whole entry partner, species assumed): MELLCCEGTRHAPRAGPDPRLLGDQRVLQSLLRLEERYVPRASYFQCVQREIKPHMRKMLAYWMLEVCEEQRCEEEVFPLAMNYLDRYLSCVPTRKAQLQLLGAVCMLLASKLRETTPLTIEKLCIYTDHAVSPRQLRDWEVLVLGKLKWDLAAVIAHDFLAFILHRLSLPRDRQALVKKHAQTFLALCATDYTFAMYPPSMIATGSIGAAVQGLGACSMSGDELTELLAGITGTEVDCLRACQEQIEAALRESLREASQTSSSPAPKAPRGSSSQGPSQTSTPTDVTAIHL

IC50 (CDK6/cyclin D3)	IC50 ([1]; Homo sapiens, OVCAR-3, 144 h)	IC50 (CDK2/cyclin E)	IC50 (CDK4/cyclin D1)	IC50 [2, 5]	IC50 [3]	IC50 ([4]; Homo sapiens, 144 h)	IC50 (CDK9/cyclin T1)	IC50 [1]	IC50 ([2]; column head MKN1, 6 days)	IC50 [4]	Molecule
3 nM	8 nM	0.05 nM	0.5 nM	1 nM		13 nM	4 nM				N[C@H]1CCN(C(=O)c2ccc(Nc3ncc4ccc5nnn(C6CCCC6)c5c4n3)cc2)C1 [Example I-38, (S)-(3-Aminopyrrolidin-1-yl)(4-((1-cyclopentyl-1H-[1,2,3]triazolo[4,5-H]quinazolin-8-yl)amino)phenyl)methanone]
94 nM	19 nM	1 nM	2 nM	20 nM		151 nM	44 nM				CC(C)N1CCN(C(=O)c2ccc(Nc3ncc4ccc5nnn(C(C)C)c5c4n3)cc2)CC1 [Example I-30, (4-Isopropylpiperazin-1-yl)(4-((1-isopropyl-1H-[1,2,3]triazolo[4,5-H]quinazolin-8-yl)amino)phenyl)metha none]
4 nM	5 nM	0.07 nM	0.7 nM	1 nM		7 nM	2 nM				CN[C@H]1CCN(C(=O)c2ccc(Nc3ncc4ccc5nnn(C6CCCC6)c5c4n3)cc2)C1 [Example I-39, (S)-(4-((1-cyclopentyl-1H-[1,2,3]triazolo[4,5-H]quinazolin-8-yl)amino)phenyl)(3-(methylamino)pyrrolidin-1-yl)methanone]
20 nM	146 nM	0.7 nM	2 nM	111 nM		169 nM	148 nM				CC(C)n1nnc2c(C(F)F)cc3cnc(Nc4ccc(C(=O)N5CCCN(C)CC5)cc4)nc3c21 [Example I-47, (4-((4-(Difluoromethyl)-1-isopropyl-1H-[1,2,3]triazolo[4,5-H]quinazolin-8-yl)amino)phenyl)(4-methyl-1,4-diazepan-1-yl)methanone]
24 nM	275 nM	0.7 nM	3 nM	170 nM		317 nM	134 nM				CC(C)n1nnc2c(C(F)F)cc3cnc(Nc4ccc(C(=O)N5CCCNCC5)cc4)nc3c21 [Example I-46]

The remaining lines, values behind:

Molecule	IC50 (CDK6/cyclin D3)	IC50 ([1]; Homo sapiens, OVCAR-3, 144 h)	IC50 (CDK2/cyclin E)	IC50 (CDK4/cyclin D1)	IC50 [2, 5]	IC50 [3]	IC50 ([4]; Homo sapiens, 144 h)	IC50 (CDK9/cyclin T1)	IC50 [1]	IC50 ([2]; column head MKN1, 6 days)	IC50 [4]
CC[C@H](Nc1nc(NCc2cnc(C)cc2C)c2ncn(C(C)C)c2n1)[C@@H](C)O [CYC-065 (Fadraciclib), reference compound]	> 1000 nM	349 nM	3 nM	228 nM	209 nM	171 nM	623 nM				
CC(C)n1nnc2ccc3cnc(Nc4ccc(C(=O)N5CC[C@H](N)[C@H](O)C5)cc4)nc3c21 [Example I-14, ((3R,4S)-4-Amino-3-hydroxypiperidin-1-yl)(4-((1-isopropyl-1H-[1,2,3]triazolo[4,5-H]quinazolin-8-yl)amino)phenyl)metha none]	39 nM	102 nM	2 nM	2 nM	66 nM	11 nM	424 nM				
CC(C)n1nnc2ccc3cnc(Nc4ccc(C(=O)N5CC[C@@H](C)[C@@H](N)C5)cc4)nc3c21 [Example I-12, ((3R,4R)-3-Amino-4-methylpiperidin-1-yl)(4-((1-isopropyl-1H-[1,2,3]triazolo[4,5-H]quinazolin-8-yl)amino)phenyl)metha none]	18 nM	26 nM	1 nM	3 nM	30 nM	6 nM	84 nM				
CC(C)n1nnc2ccc3cnc(Nc4ccc(C(=O)N5CC[C@@H](O)[C@H](N)C5)cc4)nc3c21 [Example I-13, ((3R,4R)-3-Amino-4-hydroxypiperidin-1-yl)(4-((1-isopropyl-1H-[1,2,3]triazolo[4,5-H]quinazolin-8-yl)amino)phenyl)metha none]	29 nM	156 nM	0.8 nM	4 nM	252 nM	4 nM	330 nM				
CC(C)n1nnc2ccc3cnc(Nc4ccc(C(=O)N5CCN(C)[C@@H](C)C5)cc4)nc3c21 [Example I-28, (S)-(3,4-Dimethylpiperazin-1-yl)(4-((1-isopropyl-1H-[1,2,3]triazolo[4,5-H]quinazolin-8-yl)amino)phenyl)metha none]	18 nM	59 nM	2 nM	2 nM	42 nM	9 nM	174 nM				
CC(C)n1nnc2ccc3cnc(Nc4ccc(C(=O)N5CCN(C)CC5)c(F)c4)nc3c21 [Example I-26, (2-Fluoro-4-((1-isopropyl-1H-[1,2,3]triazolo[4,5-H]quinazolin-8-yl)amino)phenyl)(4-methylpiperazin-1-yl)methanone]	19 nM	45 nM	1 nM	4 nM	41 nM		436 nM	16 nM			
CC(C)n1nnc2ccc3cnc(Nc4ccc(C(=O)N5CCN(C)[C@H](C)C5)cc4)nc3c21 [Example I-27, (R)-(3,4-Dimethylpiperazin-1-yl)(4-((1-isopropyl-1H-[1,2,3]triazolo[4,5-H]quinazolin-8-yl)amino)phenyl)metha none]	14 nM	69 nM	2 nM	5 nM	32 nM	6 nM	186 nM				
(S)-(3-Aminopyrrolidin-1-yl)(4-(4-(difluoromethyl)-1-isopropyl-1H-[1,2,3]triazolo[4,5-H]quinazolin-8-yl)amino)phenyl)methanone [Example I-43]	8 nM		1 nM	2 nM				130 nM	676 nM	444 nM	631 nM
